Consider two compounds from paper PMC11940147, “Copper Hexacyanoferrates Obtained via Flavocytochrome b2 Assistance: Characterization and Application” (Biosensors, 2025).

In general, Km refers to the substrate concentration at which the rate is half of its maximum.

Experiment [1] concerns T1, L-arginine oxidase (ArgO).
T1 construct: native, purified from the mushroom by the authors' method
Nature of the experiment: colorimetric H2O2 detection with gCuHCF and o-dianisidine, Lineweaver-Burke. The experiment is classed as biochemical, Amanita phalloides. The note with it: enzyme in solution; coupled to gCuHCF peroxidase mimic. The source says:
colorimetric H2O2 detection with gCuHCF and o-dianisidine, Lineweaver-Burke on L-arginine oxidase (ArgO) | kinetic constants of ArgO in the ArgO/gCuHCF/o-DZ method with respect to Arg

Experiment [2] has as its target T2, flavocytochrome b2 (Fcb2) (Ogataea polymorpha, UniProt A0A9P8PNE1).
T2 construct: gene OGATHE_001663
T2 sequence (A0A9P8PNE1 55-553): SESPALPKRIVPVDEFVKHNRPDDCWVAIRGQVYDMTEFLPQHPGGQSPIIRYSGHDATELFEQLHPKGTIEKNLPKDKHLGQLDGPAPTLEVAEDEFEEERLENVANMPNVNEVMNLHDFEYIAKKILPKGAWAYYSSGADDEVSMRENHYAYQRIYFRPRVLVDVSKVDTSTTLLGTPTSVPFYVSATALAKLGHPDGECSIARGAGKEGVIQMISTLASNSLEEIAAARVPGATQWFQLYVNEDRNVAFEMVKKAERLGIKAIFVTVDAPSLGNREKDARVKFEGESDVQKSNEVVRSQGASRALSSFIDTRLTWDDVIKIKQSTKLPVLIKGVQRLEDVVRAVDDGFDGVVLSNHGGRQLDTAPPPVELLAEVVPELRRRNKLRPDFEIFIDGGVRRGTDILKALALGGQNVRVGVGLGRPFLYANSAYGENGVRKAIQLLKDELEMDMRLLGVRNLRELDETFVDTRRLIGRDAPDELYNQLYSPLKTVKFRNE
Nature of the experiment: cyclic voltammetry and chronoamperometry, Fcb2 in gCuHCF on graphite electrode. The experiment is classed as biochemical.

Take `N=C(N)NCCC[C@H](N)C(=O)O` [L-arginine]: the Michaelis-Menten constant (Km) in experiment [1] was found to be 300 µM. For the compound `C[C@H](O)C(=O)O` [L-lactate], the “cyclic voltammetry and chronoamperometry, Fcb2 in gCuHCF on graphite electrode” value in experiment [2] is recorded as “current output on lactate addition correlates with Fcb2 activity in the sensing layer”.
